Laboratory results: EPA's CvTdb concentration-time database (doi:10.1093/toxsci/kfy020)

Tests used:
Assay in all cases: concentration in plasma after dosing
rat [1] = conditions: dosed: Imidacloprid, 5.0000000000 mg/kg, oral, male, Sprague-Dawley
rat [2] = conditions: male, Sprague-Dawley
rat [3] = conditions: dosed: Imidacloprid, 5.0000000000 mg/kg, oral, male, Sprague-Dawley; remark: listed apart in the source
rat [4] = conditions: dosed: Imidacloprid, 5.0000000000 mg/kg, iv, male, Sprague-Dawley
rat [5] = conditions: dosed: Imidacloprid, 5.0000000000 mg/kg, oral, male, Sprague-Dawley; remark: listed apart in the source
rat [6] = conditions: dosed: Imidacloprid, 5.0000000000 mg/kg, iv, male, Sprague-Dawley; remark: listed apart in the source
rat [7] = conditions: dosed: Imidacloprid, 5.0000000000 mg/kg, iv, male, Sprague-Dawley; remark: listed apart in the source
rat [8] = conditions: dosed: Novaluron, 2.0000000000 mg/kg, oral, male, Sprague-Dawley
rat [9] = conditions: dosed: Novaluron, 0.4000000000 mg/kg, iv, male, Sprague-Dawley
rat [10] = conditions: dosed: Novaluron, 2.0000000000 mg/kg, oral, male, Sprague-Dawley; remark: listed apart in the source
rat [11] = conditions: dosed: Novaluron, 2.0000000000 mg/kg, oral, male, Sprague-Dawley; remark: listed apart in the source
rat [12] = conditions: dosed: Novaluron, 0.4000000000 mg/kg, iv, male, Sprague-Dawley; remark: listed apart in the source

O=[N+]([O-])/N=C1\NCCN1Cc1ccc(Cl)nc1 [Imidacloprid]
concentration in plasma [ng/mL]
Conditions | rat [1] | rat [3] | rat [4] | rat [5] | rat [6] | rat [7]
0.25 h | 1770 | 4410 | – | 831 | – | –
0.5 h | 2660 | 4310 | 743 | 935 | 1140 | 382
1 h | 2670 | 6030 | 603 | 1930 | 922 | 560
2 h | 2380 | 3400 | 786 | 2060 | 626 | 694
4 h | 1990 | 2480 | 552 | 2620 | 478 | 548
5 min | – | – | 786 | – | 1260 | 217
8 h | 648 | 2670 | 232 | 2950 | 191 | 170
10 min | – | – | 683 | – | 1500 | 328
12 h | 278 | 1520 | 141 | 1200 | 67.5 | 67
24 h | 46 | 259 | 14 | 279 | 8.66 | 8.54
48 h | 14.5 | 33.6 | 2.12 | 17.9 | – | –
72 h | 8.76 | – | – | 13.2 | – | 2.49

concentration in plasma [ng/mL], rat [2], dosed: Imidacloprid, 5.0000000000 mg/kg
Conditions | iv | oral
0.25 h | – | 1600
0.5 h | 971 | 2290
1 h | 683 | 1550
2 h | 943 | 2920
4 h | 695 | 2610
5 min | 1190 | –
8 h | 327 | 2330
10 min | 1260 | –
12 h | 233 | 1360
24 h | 17.6 | 171
48 h | 2.89 | 19.7
72 h | – | 6.62

O=C(NC(=O)c1c(F)cccc1F)Nc1ccc(OC(F)(F)C(F)OC(F)(F)F)c(Cl)c1 (centres undefined) [Novaluron]
concentration in plasma [ng/mL]
Conditions | rat [8] | rat [9] | rat [10] | rat [11] | rat [12]
0.25 h | 9.95 | – | 14 | 5.18 | –
0.5 h | 24 | 125 | 37.7 | 25.3 | 202
1 h | 49.9 | 112 | 75 | 70.4 | 191
2 h | 63 | 68.3 | 165 | 135 | 120
4 h | 132 | 32.7 | 149 | 151 | 75.9
5 min | – | 241 | – | – | 283
8 h | 89.1 | 31.4 | 191 | 148 | 34.7
10 min | – | 43.2 | – | – | 188
12 h | 117 | 11.6 | 129 | 172 | 21.7
24 h | 81.5 | 8.64 | 59.6 | 44.3 | 9.78
48 h | 35 | – | 40.7 | 29.8 | 5.04
72 h | 16.2 | – | 22.9 | 14.6 | 5.1

rat [2], dosed: Novaluron
Conditions | concentration in plasma [ng/mL]
0.25 h, 2.0000000000 mg/kg, oral | 2.87
0.5 h, 0.4000000000 mg/kg, iv | 194
0.5 h, 2.0000000000 mg/kg, oral | 23.8
1 h, 0.4000000000 mg/kg, iv | 176
1 h, 2.0000000000 mg/kg, oral | 70.5
2 h, 0.4000000000 mg/kg, iv | 188
2 h, 2.0000000000 mg/kg, oral | 137
4 h, 0.4000000000 mg/kg, iv | 121
4 h, 2.0000000000 mg/kg, oral | 168
5 min, 0.4000000000 mg/kg, iv | 252
8 h, 0.4000000000 mg/kg, iv | 48.3
8 h, 2.0000000000 mg/kg, oral | 199
10 min, 0.4000000000 mg/kg, iv | 161
12 h, 0.4000000000 mg/kg, iv | 21.8
12 h, 2.0000000000 mg/kg, oral | 141
24 h, 0.4000000000 mg/kg, iv | 15.9
24 h, 2.0000000000 mg/kg, oral | 53.2
48 h, 0.4000000000 mg/kg, iv | 6.27
48 h, 2.0000000000 mg/kg, oral | 25.3
72 h, 0.4000000000 mg/kg, iv | 2.8
72 h, 2.0000000000 mg/kg, oral | 21.4
